From US20240262806A1, “INHIBITORS OF NLRP3” (PTC THERAPEUTICS, INC., priority 2021, published 2024)

tested on: NLRP3 inflammasome; assay: IL-1β Secretion Assay (NLRP3-dependent IL-1β secretion in PMA-differentiated THP-1 cells, nigericin activation, HTRF); type: cell-based; conditions: Homo sapiens, THP-1, THP-1 cells, 100 ng/mL PMA 24 h, compound 20 h, 2.5 μM Nigericin 3 h; read-out: IC50 IL-1β Inhibition
Procedure, shortened: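 PMA-differentiated THP-1 cells in RPMI with 5% FBS were treated with compounds at 7 concentrations in threefold DMSO dilutions. NLRP3 was activated with nigericin and secreted IL-1β measured by HTRF. IC50 from a logistic fit of percent inhibition versus concentration.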

`CN1C[C@H](F)C[C@@H](Nc2nnc(-c3ccc(C(F)(F)F)cc3O)c3ccncc23)C1` [Compound I-280] and `CN1CCC[C@@H](Nc2nnc(-c3ccc(C(F)(F)F)cc3O)c3ccncc23)C1` [Compound I-7] cannot be ordered by IC50: less than 1 nM for the first, less than 1 nM for the second.

Compared with `Oc1cc(C(F)(F)F)ccc1-c1nnc(N[C@@H]2CCCN(C3CC(CC(F)F)C3)C2)c2cnccc12` (stereo partly drawn) [Compound I-257], `Oc1cc(C(F)(F)F)ccc1-c1nnc(N[C@@H]2CCCN(CC(F)(F)F)C2)c2cnccc12` [Compound I-283] is lower in IC50: 1 to 10 nM for the first, less than 1 nM for the second. The second is the more potent here.

`CC(C)Oc1cc(C(F)(F)F)ccc1-c1nnc(N[C@@H]2CCCN(C)C2)c2cnccc12` [Compound I-291] and `CN1CCC[C@@H](Nc2nnc(-c3ccc(C(F)(F)F)cc3Cl)c3ccncc23)C1` [Compound I-143, (R)-1-(2-Chloro-4-(trifluoromethyl)phenyl)-N-(1-methylpiperidin-3-yl)pyrido[3,4-d]pyridazin-4-amine] fall in the same range of IC50: 1 to 10 nM for the first, 1 to 10 nM for the second.

First: CN1CCC[C@@H](Nc2nnc(-c3ccc(Cl)cc3OCC(F)(F)F)c3cccn23)C1 [Compound I-485, (R)-1-(4-Chloro-2-(2,2,2-trifluoroethoxy)phenyl)-N-(1-methylpiperidin-3-yl)pyrrolo[1,2-d][1,2,4]triazin-4-amine]
Second: CN1CCC[C@@H](Nc2nnc(-c3ccc(Cl)cc3OC(F)F)c3cccn23)C1 [Compound I-356, 1-[4-Chloro-2-(difluoromethoxy)phenyl]-N-[(3R)-1-methyl-3-piperidyl]pyrrolo[1,2-d][1,2,4]triazin-4-amine]
The IC50 of the first is higher: 10 to 100 nM for the first, 1 to 10 nM for the second.

Compared with `CN1CCC[C@@H](Nc2nnc(-c3cnc(C#N)cc3O)c3ccccc23)C1` [Compound I-74], `CN1CCC[C@@H](Nc2nnc(-c3ccc(Cl)cc3O)c3ccncc23)C1` [Compound I-60] is lower in IC50: 10 to 100 nM for the first, less than 1 nM for the second.

First: Cc1cc(O)c(-c2nnc(N[C@@H]3CCCN(C)C3)c3cnccc23)c(F)c1 [Compound I-179]
Second: Cc1cccc(O)c1-c1nnc(N[C@@H]2CCCN(C)C2)c2cnccc12 [Compound I-105]
The IC50 of the first is lower: less than 1 nM for the first, 1 to 10 nM for the second.

First: OCCN1CCC[C@@H](Nc2nnc(-c3c(O)cc(Cl)cc3F)c3cccn23)C1 [Compound I-482]
Second: CCN1CCC[C@@H](Nc2nnc(-c3c(O)cc(C4CC4)cc3F)c3cccn23)C1 [Compound I-495]
The IC50 of the first is higher: 1 to 10 nM for the first, less than 1 nM for the second. The second is the more potent here.

`CN1CCC[C@@H](Nc2nnc(-c3c(O)cc(C(F)(F)F)cc3C3CC3)c3ccncc23)C1` [Compound I-274, 3-Cyclopropyl-2-[4-[[(3R)-1-methyl-3-piperidyl]amino]pyrido[3,4-d]pyridazin-1-yl]-5-(trifluoromethyl)phenol] and `CN1CCCC(Nc2nnc(-c3ccc(C(F)(F)F)cc3O)c3ccncc23)CC1` (stereo not drawn) [Compound I-263] fall in the same range of IC50: 1 to 10 nM for the first, 1 to 10 nM for the second.

Compared with `CCN1CCC[C@@H](Nc2nnc(-c3ccc(C4CC4)cc3O)c3c(F)ccn23)C1` [Compound I-600], `CCN1CCC[C@@H](Nc2nnc(-c3ccc(OC(F)(F)F)cc3O)c3c(F)ccn23)C1` [Compound I-604] is higher in IC50: less than 1 nM for the first, 1 to 10 nM for the second. The first is the more potent here.

First: CN1C[C@H](Nc2nnc(-c3ccc(C(F)(F)F)cc3O)c3ccncc23)CC(F)(F)C1 [Compound I-265]
Second: Oc1cc(C(F)(F)F)ccc1-c1nnc(N[C@@H]2CCCNC2)c2cnccc12 [Compound I-35]
The IC50 of the first is higher: 1 to 10 nM for the first, less than 1 nM for the second.

Compared with `Oc1cc(C(F)(F)F)ccc1-c1nnc(N[C@@H]2CC[C@H](O)C2)n2cccc12` [Compound I-448], `C[C@]1(O)C[C@@H](Nc2nnc(-c3ccc(C(F)(F)F)cc3O)c3cccn23)C1` [Compound I-406] is lower in IC50: 10 to 100 nM for the first, 1 to 10 nM for the second.

First: CN1CCC[C@@H](Nc2nnc(-c3ccc(C(F)(F)F)cc3C#N)c3ccncc23)C1 [Compound I-130]
Second: CN1CCC[C@@H](Nc2nnc(-c3ccc(C(F)(F)F)cc3S(C)(=O)=O)c3ccncc23)C1 [Compound I-192]
The IC50 of the first is lower: 1 to 10 nM for the first, 10 to 100 nM for the second.

Compared with `CN1CCC[C@@H](Nc2nnc(-c3ccc(C(F)(F)F)cc3-c3cn[nH]c3)c3ccncc23)C1` [Compound I-193], `CN1CCC[C@@H](Nc2nnc(-c3ccc(C(F)(F)F)cc3-c3cccnc3)c3ccncc23)C1` [Compound I-240] is higher in IC50: 10 to 100 nM for the first, 100 to 300 nM for the second. The first is the more potent here.

`Oc1cc(C(F)(F)F)ccc1-c1nnc(NCCN2CCOCC2)c2ccccc12` [Compound I-108] and `Oc1cc(C(F)(F)F)ccc1-c1nnc(NCC2CCN2)c2ccccc12` (stereo not drawn) [Compound I-150] fall in the same range of IC50: 10 to 100 nM for the first, 10 to 100 nM for the second.

Compared with `COc1ccc(-c2nnc(N[C@@H]3CCCN(C)C3)c3c2CCC3)c(C(F)(F)F)c1` [Compound I-258], `CN1CCC[C@@H](Nc2nnc(-c3ccc(Cl)cc3O)c3c2CCC3)C1` [Compound I-314] is lower in IC50: 10 to 100 nM for the first, 1 to 10 nM for the second. The second is the more potent here.

Compared with `C[C@]1(O)C[C@@H](Nc2nnc(-c3ccc(Br)cc3O)c3ccnn23)C1` [Compound I-544], `COc1ccc(-c2nnc(N[C@H]3C[C@](C)(O)C3)n3cccc23)c(OC(F)F)c1` [Compound I-472] is higher in IC50: 1 to 10 nM for the first, 10 to 100 nM for the second. The first is the more potent here.

`C[C@]1(O)C[C@@H](Nc2nnc(-c3ccc(C(F)(F)F)cc3C(F)F)c3cccn23)C1` [Compound I-427] and `CN1CCC[C@@H](Nc2nnc(-c3ccc(C(F)(F)F)cc3C(F)F)c3cccn23)C1` [Compound I-426] fall in the same range of IC50: 10 to 100 nM for the first, 10 to 100 nM for the second.

First: CN1CCC[C@@H](Nc2nnc(-c3ccc(-n4nccn4)cc3O)c3ccncc23)C1 [Compound I-137]
Second: COc1ccc(-c2nnc(N[C@@H]3CCCN(C)C3)c3cnccc23)c(C)c1 [Compound I-254]
The IC50 of the first is lower: less than 1 nM for the first, 1 to 10 nM for the second. The first is the more potent here.

Compared with `CC(C)N1CCC[C@@H](Nc2nnc(-c3ccc(C(F)(F)F)cc3O)c3cccn23)C1` [Compound I-480], `Oc1cc(C(F)(F)F)ccc1-c1nnc(N[C@@H]2CCCOC2)n2cccc12` [Compound I-401] is higher in IC50: 1 to 10 nM for the first, 100 to 300 nM for the second. The first is the more potent here.

Compared with `N[C@H]1CCC[C@@H](Nc2nnc(-c3ccc(C(F)(F)F)cc3OC(F)F)c3cccn23)C1` [Compound I-378], `OCCN1CCC[C@@H](Nc2nnc(-c3ccc(C(F)(F)F)cc3OC(F)F)c3cccn23)C1` [Compound I-325, 2-[(3R)-3-[[1-[2-(Difluoromethoxy)-4-(trifluoromethyl)phenyl]pyrrolo[1,2-d][1,2,4]triazin-4-yl]amino]-1-piperidyl]ethanol] is lower in IC50: 10 to 100 nM for the first, 1 to 10 nM for the second. The second is the more potent here.

First: CC(C)(O)CNc1nnc(-c2ccc(OC(F)(F)F)cc2O)c2cccn12 [Compound I-438]
Second: C[C@@H](O)CNc1nnc(-c2ccc(C(F)(F)F)cc2O)c2cccn12 [Compound I-588]
The IC50 of the first is higher: 100 to 300 nM for the first, 10 to 100 nM for the second.

`CN1CCC[C@@H](Nc2nnc(-c3cc(OC(F)(F)F)ccc3C(F)F)c3ccncc23)C1` [Compound I-320] and `COc1ccc(-c2nnc(N[C@H]3CCCN(C)C3)c3cnccc23)c(C(C)C)c1` [Compound I-296] fall in the same range of IC50: 1 to 10 nM for the first, 1 to 10 nM for the second.

First: O=C(c1ccc(-c2nnc(N[C@@H]3CCCNC3)c3ccccc23)c(O)c1)C(F)(F)F [Compound I-220]
Second: CN1C[C@H](O)C[C@@H](Nc2nnc(-c3ccc(C(F)(F)F)cc3O)c3ccccc23)C1 [Compound I-84]
The IC50 of the first is higher: 100 to 300 nM for the first, 10 to 100 nM for the second.

First: Oc1cc(Cl)ccc1-c1nnc(N[C@@H]2CCC[C@H](O)C2)n2cncc12 [Compound I-578]
Second: Oc1cc(Cl)ccc1-c1nnc(N[C@@H]2CCCNC2)n2cncc12 [Compound I-435]
The IC50 of the first is lower: less than 1 nM for the first, 1 to 10 nM for the second.

First: CC(C)N1CCC[C@@H](Nc2nnc(-c3ccc(C(F)(F)F)cc3OC(F)F)c3c(F)ccn23)C1 [Compound I-592]
Second: CCN1CCC[C@@H](Nc2nnc(-c3ccc(C(F)(F)F)cc3OC(F)F)c3cc(C)nn23)C1 [Compound I-556]
The IC50 of the first is lower: less than 1 nM for the first, 1 to 10 nM for the second. The first is the more potent here.

`COc1ccc(-c2nnc(N[C@@H]3CCCN(C)C3)n3cccc23)c(C(F)(F)F)c1` [Compound I-370] and `COc1ccc(-c2nnc(N[C@@H]3CCCN(C)C3)n3cccc23)c(O)c1` [Compound I-357] fall in the same range of IC50: 1 to 10 nM for the first, 1 to 10 nM for the second.

`CCN1C[C@H](F)C[C@@H](Nc2nnc(-c3c(O)cc(C4CC4)cc3F)c3cccn23)C1` [Compound I-576] and `CN1CCC[C@@H](Nc2nnc(-c3ccc(C4CC4)cc3C(F)(F)F)c3cccn23)C1` [Compound I-534] cannot be ordered by IC50: less than 1 nM for the first, less than 1 nM for the second.

First: Cc1ccn2c(N[C@@H]3CCCN(C)C3)nnc(-c3ccc(C(F)(F)F)cc3O)c12 [Compound I-321, (R)-2-(8-Methyl-4-((1-methylpiperidin-3-yl)amino)pyrrolo[1,2-d][1,2,4]triazin-1-yl)-5-(trifluoromethyl)phenol]
Second: Cc1noc2c(-c3ccc(C(F)(F)F)cc3O)nnc(N[C@@H]3CCCN(C)C3)c12 [Compound I-255, 2-[3-methyl-4-[[(3R)-1-methyl-3-piperidyl]amino]isoxazolo[4,5-d]pyridazin-7-yl]-5-(trifluoromethyl)phenol]
The IC50 of the first is higher: 10 to 100 nM for the first, 1 to 10 nM for the second.

Compared with `COc1ccc(-c2nnc(N[C@@H]3CCCN(C)C3)c3cc(C)nn23)c(O)c1` [Compound I-351], `COc1ccc(-c2nnc(N[C@@H]3CCCN(CCO)C3)n3cccc23)c(O)c1` [Compound I-358] is lower in IC50: 10 to 100 nM for the first, 1 to 10 nM for the second. The second is the more potent here.

First: CN1C[C@H](F)C[C@@H](Nc2nnc(-c3ccc(C(F)(F)F)cc3OC(F)F)c3cccn23)C1 [Compound I-413, 1-[2-(Difluoromethoxy)-4-(trifluoromethyl)phenyl]-N-[(3R,5R)-5-fluoro-1-methyl-3-piperidyl]pyrrolo[1,2-d][1,2,4]triazin-4-amine]
Second: FC(F)Oc1cc(C(F)(F)F)ccc1-c1nnc(NC[C@H]2CCCO2)n2cccc12 [Compound I-611]
The IC50 of the first is lower: 1 to 10 nM for the first, 10 to 100 nM for the second. The first is the more potent here.

`CN1CCC[C@@H](Nc2nnc(-c3ccc(C(F)(F)F)cc3F)c3ccccc23)C1` [Compound I-127] and `Oc1cc(Cl)ccc1-c1nnc(N[C@@H]2CCOC2)n2cncc12` [Compound I-561] fall in the same range of IC50: 1 to 10 nM for the first, 1 to 10 nM for the second.

same assay, conditions: THP-1 cells, 100 ng/mL PMA 24 h, compound 20 h, 2.5 μM Nigericin 3 h; read-out: IC50 IL-1β Inhibition

Work on `Cc1cc2c(-c3ccc(C4CC4)cc3OC(F)(F)F)nnc(N[C@@H]3CCCN(C)C3)n2n1` [Compound I-419, (R)-4-(4-Cyclopropyl-2-(trifluoromethoxy)phenyl)-2-methyl-N-(1-methylpiperidin-3-yl)pyrazolo[1,5-d][1,2,4]triazin-7-amine] yielded an IC50 of 10 to 100 nM.
